Results from PubChem BioAssay AID1259407 (Chemical Carcinogenesis Research Information System (CCRIS), 2018).
Activity calls are given as the source filed them. How the calls were made is not given here.

Tested on: CCRIS mutagenicity, Ames/micronucleus/aberration tests
Assay: CCRIS mutagenicity studies

## Cl/C=C/C[N+]12CN3CN(CN(C3)C1)C2
Test System: AMES SALMONELLA TYPHIMURIUM, Strain/Indicator: TA97, Metabolic Activation: HAMSTER, LIVER, S-9, AROCLOR 1254 (5, 10 OR 30%), Method: PREINCUBATION
  mutagenic call: inactive; negative
Test System: AMES SALMONELLA TYPHIMURIUM, Strain/Indicator: TA97, Metabolic Activation: NONE, Method: PREINCUBATION
  mutagenic call: inactive; negative
Test System: AMES SALMONELLA TYPHIMURIUM, Strain/Indicator: TA97, Metabolic Activation: RAT, LIVER, S-9, AROCLOR 1254 (5, 10 OR 30%), Method: PREINCUBATION
  mutagenic call: inactive; negative
Test System: AMES SALMONELLA TYPHIMURIUM, Strain/Indicator: TA98, Metabolic Activation: HAMSTER, LIVER, S-9, AROCLOR 1254 (5 OR 30%), Method: PREINCUBATION
  mutagenic call: inactive; negative
Test System: AMES SALMONELLA TYPHIMURIUM, Strain/Indicator: TA98, Metabolic Activation: HAMSTER, LIVER, S-9, AROCLOR 1254 (10%), Method: PREINCUBATION
  mutagenic call: inactive; negative
Test System: AMES SALMONELLA TYPHIMURIUM, Strain/Indicator: TA98, Metabolic Activation: HAMSTER, LIVER, S-9, AROCLOR 1254, Method: STANDARD PLATE
  mutagenic call: inactive; negative
Test System: AMES SALMONELLA TYPHIMURIUM, Strain/Indicator: TA98, Metabolic Activation: NONE, Method: PREINCUBATION
  mutagenic call: active; positive
Test System: AMES SALMONELLA TYPHIMURIUM, Strain/Indicator: TA98, Metabolic Activation: NONE, Method: STANDARD PLATE
  mutagenic call: inactive; negative
Test System: AMES SALMONELLA TYPHIMURIUM, Strain/Indicator: TA98, Metabolic Activation: RAT, LIVER, S-9, AROCLOR 1254 (5 OR 30%), Method: PREINCUBATION
  mutagenic call: inactive; negative
Test System: AMES SALMONELLA TYPHIMURIUM, Strain/Indicator: TA98, Metabolic Activation: RAT, LIVER, S-9, AROCLOR 1254 (10%), Method: PREINCUBATION
  mutagenic call: inactive; negative
Test System: AMES SALMONELLA TYPHIMURIUM, Strain/Indicator: TA98, Metabolic Activation: RAT, LIVER, S-9, AROCLOR 1254, Method: STANDARD PLATE
  mutagenic call: inactive; negative
Test System: AMES SALMONELLA TYPHIMURIUM, Strain/Indicator: TA100, Metabolic Activation: HAMSTER, LIVER, S-9, AROCLOR 1254 (5 OR 30%), Method: PREINCUBATION
  mutagenic call: inactive; negative
Test System: AMES SALMONELLA TYPHIMURIUM, Strain/Indicator: TA100, Metabolic Activation: HAMSTER, LIVER, S-9, AROCLOR 1254 (10%), Method: PREINCUBATION
  mutagenic call: inactive; negative
Test System: AMES SALMONELLA TYPHIMURIUM, Strain/Indicator: TA100, Metabolic Activation: HAMSTER, LIVER, S-9, AROCLOR 1254, Method: STANDARD PLATE
  mutagenic call: inactive; negative
Test System: AMES SALMONELLA TYPHIMURIUM, Strain/Indicator: TA100, Metabolic Activation: NONE, Method: PREINCUBATION
  mutagenic call: inactive; negative
Test System: AMES SALMONELLA TYPHIMURIUM, Strain/Indicator: TA100, Metabolic Activation: NONE, Method: STANDARD PLATE
  mutagenic call: inactive; negative
Test System: AMES SALMONELLA TYPHIMURIUM, Strain/Indicator: TA100, Metabolic Activation: RAT, LIVER, S-9, AROCLOR 1254 (5 OR 30%), Method: PREINCUBATION
  mutagenic call: inactive; negative
Test System: AMES SALMONELLA TYPHIMURIUM, Strain/Indicator: TA100, Metabolic Activation: RAT, LIVER, S-9, AROCLOR 1254 (10%), Method: PREINCUBATION
  mutagenic call: inactive; negative
Test System: AMES SALMONELLA TYPHIMURIUM, Strain/Indicator: TA100, Metabolic Activation: RAT, LIVER, S-9, AROCLOR 1254, Method: STANDARD PLATE
  mutagenic call: inactive; negative
Test System: AMES SALMONELLA TYPHIMURIUM, Strain/Indicator: TA1535, Metabolic Activation: HAMSTER, LIVER, S-9, AROCLOR 1254 (10%), Method: PREINCUBATION
  mutagenic call: inactive; negative
Test System: AMES SALMONELLA TYPHIMURIUM, Strain/Indicator: TA1535, Metabolic Activation: HAMSTER, LIVER, S-9, AROCLOR 1254, Method: STANDARD PLATE
  mutagenic call: inactive; negative
Test System: AMES SALMONELLA TYPHIMURIUM, Strain/Indicator: TA1535, Metabolic Activation: NONE, Method: PREINCUBATION
  mutagenic call: inactive; negative
Test System: AMES SALMONELLA TYPHIMURIUM, Strain/Indicator: TA1535, Metabolic Activation: NONE, Method: STANDARD PLATE
  mutagenic call: inactive; negative
Test System: AMES SALMONELLA TYPHIMURIUM, Strain/Indicator: TA1535, Metabolic Activation: RAT, LIVER, S-9, AROCLOR 1254 (10%), Method: PREINCUBATION
  mutagenic call: inactive; negative
Test System: AMES SALMONELLA TYPHIMURIUM, Strain/Indicator: TA1535, Metabolic Activation: RAT, LIVER, S-9, AROCLOR 1254, Method: STANDARD PLATE
  mutagenic call: inactive; negative
Test System: AMES SALMONELLA TYPHIMURIUM, Strain/Indicator: TA1537, Metabolic Activation: HAMSTER, LIVER, S-9, AROCLOR 1254 (5, 10 OR 30%), Method: PREINCUBATION
  mutagenic call: inactive; negative
Test System: AMES SALMONELLA TYPHIMURIUM, Strain/Indicator: TA1537, Metabolic Activation: HAMSTER, LIVER, S-9, AROCLOR 1254, Method: STANDARD PLATE
  mutagenic call: inactive; negative
Test System: AMES SALMONELLA TYPHIMURIUM, Strain/Indicator: TA1537, Metabolic Activation: NONE, Method: STANDARD PLATE
  mutagenic call: inactive; negative
Test System: AMES SALMONELLA TYPHIMURIUM, Strain/Indicator: TA1537, Metabolic Activation: RAT, LIVER, S-9, AROCLOR 1254 (5, 10 OR 30%), Method: PREINCUBATION
  mutagenic call: inactive; negative
Test System: AMES SALMONELLA TYPHIMURIUM, Strain/Indicator: TA1537, Metabolic Activation: RAT, LIVER, S-9, AROCLOR 1254, Method: STANDARD PLATE
  mutagenic call: inactive; negative
Test System: AMES SALMONELLA TYPHIMURIUM, Strain/Indicator: TA1538, Metabolic Activation: HAMSTER, LIVER, S-9, AROCLOR 1254, Method: STANDARD PLATE
  mutagenic call: inactive; negative
Test System: AMES SALMONELLA TYPHIMURIUM, Strain/Indicator: TA1538, Metabolic Activation: NONE, Method: STANDARD PLATE
  mutagenic call: inactive; negative
Test System: AMES SALMONELLA TYPHIMURIUM, Strain/Indicator: TA1538, Metabolic Activation: RAT, LIVER, S-9, AROCLOR 1254, Method: STANDARD PLATE
  mutagenic call: inactive; negative
Test System: MOUSE LYMPHOMA, Strain/Indicator: L5178Y (TK+/TK-), Metabolic Activation: NONE, Method: SUSPENSION/PLATE
  mutagenic call: active; positive. reevaluation of results: positive
Test System: MOUSE LYMPHOMA, Strain/Indicator: L5178Y (TK+/TK-), Metabolic Activation: RAT, LIVER, S-9, AROCLOR 1254, Method: SUSPENSION/PLATE
  mutagenic call: active; positive. reevaluation of results: positive

## CNc1ccc(O)c2c1C(=O)c1c(O)ccc(NC)c1C2=O
Test System: Ames Salmonella typhimurium, Strain/Indicator: TA98, Metabolic Activation: None, Method: Preincubation
  mutagenic call: active; positive
Test System: Ames Salmonella typhimurium, Strain/Indicator: TA100, Metabolic Activation: None, Method: Preincubation
  mutagenic call: active; positive
Test System: Ames Salmonella typhimurium, Strain/Indicator: TA102, Metabolic Activation: None, Method: Preincubation
  mutagenic call: inactive; negative
Test System: Ames Salmonella typhimurium, Strain/Indicator: TA1535, Metabolic Activation: None, Method: Preincubation
  mutagenic call: active; positive
